Format in all cases: cell-based
Assay [1] concerns the target T1, BRD9 (Homo sapiens, UniProt Q9H8M2).
T1 sequence (Q9H8M2 1-597): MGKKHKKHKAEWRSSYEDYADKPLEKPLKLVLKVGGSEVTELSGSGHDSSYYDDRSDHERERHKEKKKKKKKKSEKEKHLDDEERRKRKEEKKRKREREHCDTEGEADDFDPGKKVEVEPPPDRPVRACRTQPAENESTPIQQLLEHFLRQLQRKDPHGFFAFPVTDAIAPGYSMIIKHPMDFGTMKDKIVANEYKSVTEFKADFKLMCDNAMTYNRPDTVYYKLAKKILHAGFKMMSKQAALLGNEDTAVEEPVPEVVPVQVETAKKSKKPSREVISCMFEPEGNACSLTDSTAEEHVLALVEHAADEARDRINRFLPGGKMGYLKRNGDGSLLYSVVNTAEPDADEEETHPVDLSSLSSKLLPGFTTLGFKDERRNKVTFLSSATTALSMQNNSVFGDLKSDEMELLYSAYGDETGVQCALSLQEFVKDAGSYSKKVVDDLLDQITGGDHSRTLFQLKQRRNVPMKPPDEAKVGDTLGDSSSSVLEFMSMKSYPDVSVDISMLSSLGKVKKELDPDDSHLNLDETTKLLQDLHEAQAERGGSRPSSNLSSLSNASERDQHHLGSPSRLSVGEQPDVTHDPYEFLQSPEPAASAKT
Briefly: BRD9 degradation, HiBiT-BRD9 KI HEK293 (LgBiT) cells, NanoGlo Lytic Endpoint assay (Assay Protocol 1). As to conditions: for Dmax at 1 µM: HEK293; for DC50: 6 h of treatment, read-out: Assay 1 DC50. The procedure, abridged: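 HiBiT-tagged BRD9 knock-in HEK293 (LgBiT) cells exposed to compounds for 6 h at 37 °C, 5% CO2. Residual BRD9 measured by HiBiT lytic luminescence. % BRD9 remaining normalised to DMSO-treated cells (high) and no-cell wells (low).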
In general terms: The HiBiT peptide binds its large partner to form an active luciferase.

In assay [2] the target is T1, BRD9. The description is as above. As to conditions: Table 3; assay 1; 5 h of treatment.
Assay [3] addresses T2, BRD4 (Homo sapiens, UniProt O60885).
T2 construct: HiBiT-BRD4 HEK293 CRISPR CPM (Promega CS302312); host or cells: HEK293, CRISPR-edited (HiBiT at the BRD4 locus)
The assay is described as follows: BRD4 degradation, HiBiT-BRD4 HEK293 CRISPR CPM cells, NanoGlo Lytic Endpoint assay (Assay Protocol 1). As to conditions: HEK293; Table 3; assay 1; 1 μM compound at 5 h of treatment.

Where [4] appears, read: Table 2, BRD9 degradation, Assay Protocol 1, 1 μM compound at 6 h of treatment, read-out: Assay 1 Dmax.
The mark [5] stands for this setting: Table 3, assay 1, 1 μM compound at 5 h of treatment, read-out: BRD9 Dmax (%).
[6] abbreviates: Table 2, BRD9 degradation, Assay Protocol 1.

Drawing on patent US20260092061A1, “COMPOUNDS FOR TARGETED PROTEIN DEGRADATION” (Amphista Therapeutics Limited, priority 2022, published 2026), this text covers Dmax and DC50 for three molecules.

Read-outs that look alike come from different tables or passages of the source.

The term Dmax denotes the greatest extent of degradation seen. The DC50 is the concentration giving 50% degradation. Regarding `COc1cc(-c2cn(C)c(=O)c(C)c2C)cc(OC)c1CN1CCC(Oc2cccc3c2CCN(C(=O)/C(C#N)=C/c2cccc(Br)n2)C3C)CC1` (mixture of isomers) [Compound A68, (E/Z)-3-(6-bromopyridin-2-yl)-2-(5-((1-(2,6-dimethoxy-4-(1,4,5-trimethyl-6-oxo-1,6-dihydropyridin-3-yl)benzyl)piperidin-4-yl)oxy)-1-methyl-1,2,3,4-tetrahydroisoquinoline-2-carbonyl)acrylonitrile], the Dmax at 1 µM in assay [1] (setting [4]) and in assay [1] (setting [5]) was above 75% throughout. Also, the DC50 in assay [1] (setting [6]) and in assay [2] was 1.25 to 10 nM each time. Besides, the Dmax in assay [3] was below 25%.

Regarding `COc1cc(-c2cn(C)c(=O)c(C)c2C)cc(OC)c1CN1CC2CC(C1)N2Cc1cccc2c1CCN(C(=O)/C(C#N)=C/C(C)(C)C)C2C` (mixture of isomers) [Compound A71, (E/Z)-2-(5-((3-(2,6-dimethoxy-4-(1,4,5-trimethyl-6-oxo-1,6-dihydropyridin-3-yl)benzyl)-3,6-diazabicyclo[3.1.1]heptan-6-yl)methyl)-1-methyl-1,2,3,4-tetrahydroisoquinoline-2-carbonyl)-4,4-dimethylpent-2-enenitrile], the Dmax at 1 µM in assay [1] (setting [4]) and in assay [1] (setting [5]) was 70 to 75% throughout. Further, the DC50 in assay [1] (setting [6]) and in assay [2] was 1.25 to 10 nM each time. The Dmax in assay [3] is 25 to 40%.

Consider `COc1cc(-c2cn(C)c(=O)c(C)c2C)cc(OC)c1CN1CCCN(Cc2cccc3c2CCN(C(=O)/C(C#N)=C/C(C)(C)C)C3C)CC1` (mixture of isomers) [Compound A72, (E/Z)-2-(5-((4-(2,6-dimethoxy-4-(1,4,5-trimethyl-6-oxo-1,6-dihydropyridin-3-yl)benzyl)-1,4-diazepan-1-yl)methyl)-1-methyl-1,2,3,4-tetrahydroisoquinoline-2-carbonyl)-4,4-dimethylpent-2-enenitrile], for which the Dmax at 1 µM in assay [1] (setting [4]) and in assay [1] (setting [5]) was 70 to 75% each time. In addition, the DC50 in assay [1] (setting [6]) and in assay [2] was 10 to 25 nM in each case. The Dmax in assay [3] is below 25%.
